System: C3H spleen T cells
Assay: One-way mixed leukocyte reaction (MLR), allostimulatory capacity by [3H]TdR uptake
Type: cell-based, mouse
Settings: zVAD-fmk 100 μM added at the beginning of 3-day MLR
Experimental: Mixed leukocyte reaction (MLR). To determine the allostimulatory capacity of DCs, one-way MLR were performed with γ-irradiated (20 Gy) DCs or spleen cells from B10 (allogeneic) or C3H (syngeneic) mice as stimulators and nylon wool-purified C3H spleen T cells (2×105) as responders. Cultures (200 μl) were established in triplicate in 96-well round-bottom microculture plates and maintained in complete medium in 5% CO2 in air at 37° C. for 3-4 days. [^3H]TdR (1 μCi/well) was added for the final 18 h of culture, and incorporation of [^3H]TdR into DNA was assessed by liquid scintillation counting in an automated counter. Results are expressed as mean cpm±1 SD. In apoptosis inhibition experiments, a common caspase inhibitor peptide, benzyloxycarbonyl-Val Ala-Asp-fluoromethyl ketone (zVAD-fmk; Alexis, San Diego, Calif.), was added (100 μM) at the beginning of the MLR culture. DMSO served as a control.
Allostimulatory capacity of liver-derived DEC205^+B220^+CD19^−cells. The allostimulatory capacity of DEC205^+, B220^+, CD19^−cells derived from B 10 liver NPCs was determined in a one-way MLR, performed as described above. […] Despite the high expression of MHC and costimulatory molecules, liver-derived DEC205^+B220^+CD19^−cells display low allostimulatory capacity.

**Q.** For “benzyloxycarbonyl-Val Ala-Asp-fluoromethyl ketone [zVAD-fmk]”, which “T cell proliferation induced by liver-derived DEC205+B220+CD19− cells after caspase inhibition” value is on record?
**A.** restored T cell proliferation
